The results in this text go back to patent US20230100367A1, “METHODS OF TREATING CDGSH IRON SULFUR DOMAIN 2 INSUFFICIENCY-ASSOCIATED DISORDERS” (National Yang Ming Chiao Tung University, priority 2021, published 2023).

This experiment concerns Cisd2 promoter with firefly luciferase reporter (HEK293-CISD2). The experiment is described as follows: Cisd2-luciferase reporter assay. It counts as cell-based. Particulars: Homo sapiens; HEK293-CISD2 cells, 24 h incubation, luciferase activity. As for the experimental part: Compounds 1-35 were tested for increasing the level of Cisd2 in human embryonic kidney cells 293 (HEK293), a transfected cell line expressing Cisd2, using the Cisd2-luciferase reporter assay as described below.
The transfected HEK293 cells stably expressed Cisd2 promoter with firefly luciferase reporter (“HEK293-CISD2”). They were kept in Dulbecco's modified Eagle's medium (“DMEM”) (Gibco, New York, N.Y.). Culture medium was supplemented with 10% heat-inactivated fetal bovine serum (“FBS”), 2 mM L-Glutamine, 1 mM sodium pyruvate, 0.1% MEM Non-Essential Amino Acids, 1 μg/ml puromycin and 1% penicillin/streptomycin (HyClone, Logan, Utah). The cells were maintained at 37° C. in an incubator (Thermo Fisher Scientific, Waltham, Mass.) with an atmosphere of 5% CO2. The stably transfected cells were seeded in 384-well plates at a density of 3×10^3 cells/well. After incubation with a tested compound at 37° C. for 24 h, ONE-Glo™ Luciferase Assay System (Promega, Madison, Wis.) was added at room temperature for 10 minutes to detect any luciferase activity. Luminescence intensity was registered using plate reader BioTek Synergy Neo2™ (Agilent, Santa Clara, Calif.).
EC50 values in this table are presented in […] classes, i.e., A: <1 μM and B: 1 μM-10 μM.
In general terms: Reporter assays use an easily measured gene product as a stand-in for the process of interest.

`Cc1ccc(NC(=O)c2sc(N)c(C#N)c2C)c(C)c1` [Compound 2, 5-Amino-4-cyano-N-(2,4-dimethylphenyl)-3-methylthiophene-2-carboxamide]: the 50% effective concentration (EC50) – broadly, the concentration at which the effect is half-maximal – lay within 1000 to 10000 nM.
The result for `COC(=O)c1c(N)sc(C(=O)Nc2cccnc2)c1C` [Compound 3, Methyl 2-amino-4-methyl-5-(pyridin-3-ylcarbamoyl)thiophene-3-carboxylate] reads less than 1000 nM.
In the case of `COC(=O)c1c(N)sc(C(=O)OC(C)(C)C)c1C` [Compound 4, 2-tert-Butyl 4-methyl 5-amino-3-methylthiophene-2,4-dicarboxylate] it was 1000 to 10000 nM; in that of `CCOC(=O)c1c(N)sc(C(=O)Nc2ccc(F)cc2)c1C` [Compound 5, Ethyl 2-amino-5-[(4-fluorophenyl)carbamoyl]-4-methylthiophene-3-carboxylate], less than 1000 nM; in that of `COC(=O)c1c(N)sc(C(=O)Nc2ccc(OC)cc2)c1C` [Compound 6, Methyl 2-amino-5-[(4-methoxyphenyl)carbamoyl]-4-methylthiophene-3-carboxylate], less than 1000 nM.
Consider `COC(=O)c1c(N)sc(C(=O)Nc2ccccc2C)c1C` [Compound 7, Methyl 2-amino-4-methyl-5-[(2-methylphenyl)carbamoyl]thiophene-3-carboxylate], for which the EC50 was less than 1000 nM.
In the case of `COC(=O)c1c(N)sc(C(=O)Nc2ccc(C)cc2)c1C` [Compound 8, Methyl 2-amino-4-methyl-5-[(4-methylphenyl)carbamoyl]thiophene-3-carboxylate] it was less than 1000 nM; in that of `COC(=O)c1c(N)sc(C(=O)Nc2ccccc2)c1C` [Compound 9, Methyl 2-amino-4-methyl-5-(phenylcarbamoyl)thiophene-3-carboxylate], less than 1000 nM; in that of `COC(=O)c1c(N)sc(C(=O)Nc2ccc(C(F)(F)F)cc2)c1C` [Compound 10, Methyl 2-amino-4-methyl-5-{-[4-(trifluoromethyl)phenyl]carbamoyl}thiophene-3-carboxylate], less than 1000 nM.
Regarding `COC(=O)c1c(N)sc(C(=O)Nc2ccc(N(C)C)cc2)c1C` [Compound 11, Methyl 2-amino-5-{-[4-(dimethylamino)phenyl]carbamoyl}-4-methylthiophene-3-carboxylate], the EC50 is less than 1000 nM.
`Cc1ccc(NC(=O)c2sc(N)c(C(N)=O)c2C)c(C)c1` [Compound 12, 5-Amino-N^2-(2,4-dimethylphenyl)-3-methylthiophene-2,4-dicarboxamide]: the EC50 was less than 1000 nM.
As for `COC(=O)c1c(N)sc(C(=O)Nc2ccc(F)cc2)c1C` [Compound 13, Methyl 2-amino-5-[(4-fluorophenyl)carbamoyl]-4-methylthiophene-3-carboxylate], the EC50 was less than 1000 nM.
`Cc1ccc(NC(=O)c2sc(N)c(C(=O)OC(C)C)c2C)c(C)c1` [Compound 14, Propan-2-yl 2-amino-5-[(2,4-dimethylphenyl)carbamoyl]-4-methylthiophene-3-carboxylate]: the EC50 is 1000 to 10000 nM.
Regarding `COC(=O)c1c(N)sc(C(=O)Nc2ccc(C#N)cc2)c1C` [Compound 15, Methyl 2-amino-5-[(4-cyanophenyl)carbamoyl]-4-methylthiophene-3-carboxylate], the half-maximal effective concentration (EC50) was less than 1000 nM.
In the case of `COC(=O)c1c(N)sc(C(=O)Nc2cccc(C)c2)c1C` [Compound 16, Methyl 2-amino-4-methyl-5-[(3-methylphenyl)carbamoyl]thiophene-3-carboxylate] it was less than 1000 nM; in that of `COC(=O)c1c(N)sc(C(=O)Nc2c(C)cc(C)cc2C)c1C` [Compound 17, Methyl 2-amino-4-methyl-5-[(2,4,6-trimethylphenyl)carbamoyl]thiophene carboxylate], 1000 to 10000 nM; in that of `COC(=O)c1c(N)sc(C(=O)Nc2cc(OC)c(OC)c(OC)c2)c1C` [Compound 18, Methyl 2-amino-4-methyl-5-[(3,4,5-trimethoxyphenyl)carbamoyl]thiophene-3-carboxylate], 1000 to 10000 nM.
The result for `COC(=O)c1c(N)sc(C(=O)Nc2nccs2)c1C` [Compound 19, Methyl 2-amino-4-methyl-5-(1,3-thiazol-2-ylcarbamoyl)thiophene-3-carboxylate] reads less than 1000 nM.
The result for `COC(=O)c1c(N)sc(C(=O)Nc2cccc(OC)c2)c1C` [Compound 20, Methyl 2-amino-5-[(3-methoxyphenyl)carbamoyl]-4-methylthiophene-3-carboxylate] reads less than 1000 nM; that for `COC(=O)c1c(N)sc(C(=O)Nc2ccc(O)cc2)c1C` [Compound 21, methyl 2-amino-5-[(4-hydroxyphenyl)carbamoyl]-4-methylthiophene-3-carboxylate], less than 1000 nM.
For the compound `COC(=O)c1cc(C(=O)Nc2ccc(C)cc2C)sc1N` [Compound 22, Methyl 2-amino-5-[(2,4-dimethylphenyl)carbamoyl]thiophene-3-carboxylate], the EC50 was 1000 to 10000 nM.
In the case of `COC(=O)c1c(N)sc(C(=O)Nc2ccc(C)cc2C)c1Br` [Compound 23, methyl 2-amino-4-bromo-5-[(2,4-dimethylphenyl)carbamoyl]thiophene-3-carboxylate] it was less than 1000 nM.
Take `COC(=O)c1c(N)sc(C(=O)Cc2ccc(C)cc2C)c1C` [Compound 24, methyl 2-amino-5-[(2,4-dimethylphenyl)acetyl]-4-methylthiophene-3-carboxylate]: the concentration giving a half-maximal response (EC50) fell in the range of 1000 to 10000 nM.
The result for `CCOC(=O)c1c(N)sc(C(=O)Nc2ccc(C)cc2C)c1C` [Compound 25, Ethyl 2-amino-5-[(2,4-dimethylphenyl)carbamoyl]-4-methylthiophene-3-carboxylate] reads less than 1000 nM; that for `CCOC(=O)c1cccc(NC(=O)c2sc(N)c(C(=O)OCC)c2C)c1` [Compound 26, Ethyl 2-amino-5-{[3-(ethoxycarbonyl)phenyl]carbamoyl}-4-methylthiophene-3-carboxylate], 1000 to 10000 nM.
In the case of `Cc1ccc(NC(=O)c2sc(N)c(C(=O)O)c2C)c(C)c1` [Compound 27, 2-amino-5-[(2,4-dimethylphenyl)carbamoyl]-4-methylthiophene-3-carboxylic acid], the EC50 is less than 1000 nM.
Consider `Cc1ccc(NC(=O)c2sc(N)c(C(=O)NCC#N)c2C)c(C)c1` [Compound 28, 5-amino-N^4-(cyanomethyl)-N^2-(2,4-dimethylphenyl)-3-methylthiophene-2,4-dicarboxamide], for which the EC50 fell in the range of 1000 to 10000 nM.
The result for `Cc1ccc(NC(=O)c2sc(N)c(C(=O)CO)c2C)c(C)c1` [Compound 29, 5-amino-N-(2,4-dimethylphenyl)-4-(hydroxyacetyl)-3-methylthiophene-2-carboxamide] reads less than 1000 nM.
Regarding `CC(=O)c1c(N)sc(C(=O)Nc2ccc(C)cc2C)c1C` [Compound 30, 4-acetyl-5-amino-N-(2,4-dimethylphenyl)-3-methylthiophene-2-carboxamide], the EC50 was less than 1000 nM.
For the compound `CC(=O)c1c(N)sc(C(=O)Nc2ccccc2)c1C` [Compound 31, 4-Acetyl-5-amino-3-methyl-N-phenylthiophene-2-carboxamide], the EC50 was less than 1000 nM.
In the case of `CC(=O)c1c(N)sc(C(=O)Nc2ccc(F)cc2)c1C` [Compound 32, 4-Acetyl-5-amino-N-(4-fluorophenyl)-3-methylthiophene-2-carboxamide] it was less than 1000 nM; in that of `COC(=O)c1c(NC(C)=O)sc(C(=O)Nc2ccc(C)cc2C)c1C` [Compound 33], 1000 to 10000 nM.
In the case of `Cc1ccc(NC(=O)c2sc(N)c(C(=O)OC(C)(C)C)c2C)c(C)c1` [Compound 34, tert-Butyl 2-amino-5-[(2,4-dimethylphenyl)carbamoyl]-4-methylthiophene carboxylate] it was 1000 to 10000 nM.
With `COC(=O)c1c(N)sc(C(=O)Nc2ccccc2OC)c1C` [Compound 35, Methyl 2-amino-5-[(2-methoxyphenyl)carbamoyl]-4-methylthiophene-3-carboxylate], the EC50 was 1000 to 10000 nM.
